From patent US8242058B2, “Reagents and methods for appending functional groups to proteins” (Wisconsin Alumni Research Foundation, priority 2006, dated 2012)

Assays:
[1] = biological target: T1, ribonuclease inhibitor protein (RI) (Homo sapiens, UniProt P13489); experiment: RI binding to immobilized RNase A (immunoassay, ellipsometry); conditions: RI 10 μM, 10 min at 4° C.
T1 sequence (P13489 2-461 limits assumed): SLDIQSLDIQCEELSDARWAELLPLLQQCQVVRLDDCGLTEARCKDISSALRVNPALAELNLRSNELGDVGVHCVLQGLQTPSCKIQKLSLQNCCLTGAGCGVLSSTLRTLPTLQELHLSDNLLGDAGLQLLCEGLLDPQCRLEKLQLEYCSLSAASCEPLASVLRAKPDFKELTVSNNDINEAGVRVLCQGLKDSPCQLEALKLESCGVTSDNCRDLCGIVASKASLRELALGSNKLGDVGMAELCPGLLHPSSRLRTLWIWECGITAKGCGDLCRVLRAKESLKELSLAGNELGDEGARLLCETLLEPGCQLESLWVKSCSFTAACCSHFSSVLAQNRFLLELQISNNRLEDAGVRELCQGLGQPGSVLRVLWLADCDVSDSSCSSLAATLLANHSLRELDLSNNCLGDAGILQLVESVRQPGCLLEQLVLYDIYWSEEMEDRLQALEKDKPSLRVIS
Method: RI binding to immobilized RNase A. Azido-RNase A (1 μL, 10 μM in 5% DMF/water) was spotted on phosphinothioester-displaying SAMs on a gold chip for 15 minutes at r.t. in an AtmosBag™ filled with Ar(g). The chip was taken out of the bag and rinsed with sodium phosphate buffer (25 mM) at pH 7.5 (2×20 mL) and incubated in the same buffer for 30 min to remove non-specifically bound RNase A. RI (10 μM in sodium phosphate buffer (25 mM) at pH 7.5 containing 10 mM DTT) was overlaid on the chip for 10 min at 4° C. The chip was then rinsed with sodium phosphate buffer (25 mM) at pH 7.5 containing 10 mM DTT (2×20 mL) and incubated in the same buffer for 15 min.
Detection of RI bound to immobilized RNase A. (i) Immunoassay: After RI binding, the chip was overlaid with bovine serum albumin (2.0 mg/mL in sodium phosphate buffer (25 mM) at pH 7.5) for 15 min. The chip was rinsed with sodium phosphate buffer (25 mM) at pH 7.5 (2×20 mL) and subsequently incubated with chicken primary antibody to RI (12.5 μg/mL in sodium phosphate buffer (25 mM) at pH 7.5) for 15 min. […] The chip was scanned with a Genomic Solutions® GeneTac UC4×4 Fluorescence Scanner using a gain of 50. […]

[2] = Immobilization on phosphinothioester-displaying chips by Staudinger ligation, immunofluorescence detection; conditions: 10 μM in 5% DMF/water, r.t.
Method: Preparation of Gold Chips (Chang). Preparation of Phosphinothioester-displaying SAMs of Alkane Thiols on Gold Chips. Alkane thiol solutions were prepared by dissolving HS—(CH2)11—(O—CH2—CH2)6—O—CH2—COOH and HS—(CH2)11—(O—CH2—CH2)3—OH in ethanol to a final concentration of 0.25 mM each. Gold chips were cleaned under a stream of Ar(g) and immersed in the alkane thiol solution for at least 18 h at r.t. After rinsing thoroughly with ethanol and drying under a stream of Ar(g), the chips were overlaid with an aqueous solution containing N-hydroxysuccinimide (50 mM) and 1-ethyl-3-(3-dimethylaminopropyl)-carbodiimide (200 mM) for 7 min to generate succinimidyl ester-displaying chips. Phosphinomethanethiol (PPh2CH2SH) was synthesized as described earlier and was dissolved in anhydrous DMF to a concentration of 100 mM. N,N-diisopropylethylamine (DIPEA) was added to a concentration of 120 mM. […]
Detection of Immobilized RNase A. A chip displaying immobilized RNase A was overlaid with anti-RNase A rabbit primary antibody (100 μg/mL in sodium phosphate buffer (25 mM) at pH 7.5) for 30 min at r.t. […] Finally, the chip was rinsed with sodium phosphate buffer (25 mM) at pH 7.5 (2×20 mL) and incubated in the same buffer for 15 min and scanned with a Genomic Solutions® GeneTac UC4×4 Fluorescence Scanner using a gain of 50.

[3] = system: 6-carboxyfluorescein-dArU(dA)2-6-carboxytetramethylrhodamine; experiment: RNase A activity assay on immobilized RNase A; assay type: biochemical; conditions: chip overlaid with 10 μM protein, pH 6.0
Method: RNase A activity assay on immobilized RNase A. A phosphinothioester chip was overlaid with azido-RNase A (10 μM in 5% DMF/H2O) for 15 min in Ar(g) atmosphere in an AtmosBag™ to immobilize RNase A via Staudinger ligation. The chip was rinsed with sodium phosphate buffer (25 mM) at pH 7.5 (2×20 mL) and then introduced into a vial containing 2-(N-Morpholino)ethanesulfonic acid buffer (0.1 M) at pH 6.0 (22 mL, containing 0.1 M NaCl). A fluorogenic substrate of RNase A, 6-carboxyfluorescein-dArU(dA)2-6-carboxytetramethylrhodamine (10 μl of a 40 μM solution), was introduced into the vial. The vial was placed on a shaker and 2 mL aliquots were withdrawn at various time intervals and the fluorescence measured (λex=493 nm, λem=515 nm). The fluorescence intensity was plotted against time. A phosphinothioester chip was overlaid with wt-RNase A (10 μM in 5% DMF/H2O) and rinsed with sodium phosphate buffer (25 mM) at pH 7.5 (2×20 mL) and a similar assay was performed. As a negative control, a similar assay was performed on a phosphinothioester chip which was not overlaid with RNase A. The percentage of the fluorescent substrate cleaved at various time intervals were subtracted from the corresponding values for the negative control to generate the graph in FIG. 8.

- RI binding to chip incubated with the protein [1]: bound RI
Substance: Met(−1)RNase A-Gly-NHNHCH2C(O)NHCH2CH2N3 [azido-RNase A]
- time at which fluorescence signal of immobilized protein was detected [2]: ≤ 1 min
- enzymatic activity of chip incubated with the protein (increase of fluorescence intensity) [3]: much faster rate
